# Measured values taken from publication PMC11213733, “Computational approaches identify a transcriptomic fingerprint of drug-induced structural cardiotoxicity” (Cell Biology and Toxicology, 2024).
# Read-outs that look alike come from different tables or passages of the source.
# Tests used:
# cardiac microtissues [1] = test: Transcriptomic profiling (mRNA-seq) and DESeq2 differential gene expression analysis in cardiac microtissues; conditions: absolute log2(Fold-Change) > 1, FDR p ≤ 0.05
# cardiac microtissues [2] = test: Ingenuity Pathway Analysis over-representation of differentially expressed genes (activation Z-score); assay type: cell-based, human; conditions: 48hr high; Group 2
# [3] = ref FDA label, cited from earlier work
# cardiac microtissues [4] = test: Targeted qRT-PCR of ATAD3C, CDH13, IL6, PTX3, SLC7A5, UCHL1 in cardiac microtissues; assay type: cell-based, human; conditions: Sorafenib 3.74 µM, Sunitinib 3.53 µM, Dasatinib 10.8 µM; for activity at 10.8 µM: Homo sapiens, read-out: % of control
# Method: The experiment was performed with three technical replicates across 1-2 independent replicates.
structure (smiles),measurement,setting,value
Cc1nc(Nc2ncc(C(=O)Nc3c(C)cccc3Cl)s2)cc(N2CCN(CCO)CC2)n1 [Dasatinib],"number of significant differentially expressed genes, 6hr high","cardiac microtissues [1]; 6 hr, high concentration",108
same,"number of significant differentially expressed genes, 6hr low","cardiac microtissues [1]; 6 hr, low concentration",48
same,"number of significant differentially expressed genes, 48hr high","cardiac microtissues [1]; 48 hr, high concentration",820
same,"number of significant differentially expressed genes, 48hr low","cardiac microtissues [1]; 48 hr, low concentration",637
same,"number of significant differentially expressed genes, 72hr high","cardiac microtissues [1]; 72 hr, high concentration",814
same,"number of significant differentially expressed genes, 72hr low","cardiac microtissues [1]; 72 hr, low concentration",616
same,activation Z-score: Actin Cytoskeleton Signaling,cardiac microtissues [2],-2.887
same,activation Z-score: Actin Nucleation by ARP-WASP Complex,cardiac microtissues [2],-2.449
same,activation Z-score: Acute Phase Response Signaling,cardiac microtissues [2],-2.828
same,activation Z-score: Adrenomedullin signaling pathway,cardiac microtissues [2],-0.535
same,activation Z-score: Apelin Cardiac Fibroblast Signaling Pathway,cardiac microtissues [2],2.449
same,activation Z-score: Apelin Liver Signaling Pathway,cardiac microtissues [2],-2.449
same,activation Z-score: Aryl Hydrocarbon Receptor Signaling,cardiac microtissues [2],-2.333
same,activation Z-score: Breast Cancer Regulation by Stathmin1,cardiac microtissues [2],-3.363
same,activation Z-score: CLEAR Signaling Pathway,cardiac microtissues [2],2.5
same,activation Z-score: Cardiac Hypertrophy Signaling (Enhanced),cardiac microtissues [2],-3.889
same,activation Z-score: Colorectal Cancer Metastasis Signaling,cardiac microtissues [2],-3.5
same,activation Z-score: Cyclins and Cell Cycle Regulation,cardiac microtissues [2],1
same,activation Z-score: ERK5 Signaling,cardiac microtissues [2],-2.646
same,activation Z-score: Endothelin-1 Signaling,cardiac microtissues [2],-1.604
same,activation Z-score: G-Protein Coupled Receptor Signaling,cardiac microtissues [2],-1.571
same,activation Z-score: GP6 Signaling Pathway,cardiac microtissues [2],-3.742
same,activation Z-score: Glioblastoma Multiforme Signaling,cardiac microtissues [2],-2.111
same,activation Z-score: HGF Signaling,cardiac microtissues [2],-1.89
same,activation Z-score: HIF1Î± Signaling,cardiac microtissues [2],-2.673
same,activation Z-score: HMGB1 Signaling,cardiac microtissues [2],-3.3
same,activation Z-score: Hepatic Fibrosis Signaling Pathway,cardiac microtissues [2],-6.008
same,activation Z-score: IL-6 Signaling,cardiac microtissues [2],-3.3
same,activation Z-score: IL-8 Signaling,cardiac microtissues [2],-2.84
same,activation Z-score: IL-13 Signaling Pathway,cardiac microtissues [2],-1.897
same,activation Z-score: IL-15 Production,cardiac microtissues [2],-1.897
same,activation Z-score: ILK Signaling,cardiac microtissues [2],-3.207
same,activation Z-score: Immunogenic Cell Death Signaling Pathway,cardiac microtissues [2],-2.828
same,activation Z-score: Integrin Signaling,cardiac microtissues [2],-3.357
same,activation Z-score: Intrinsic Prothrombin Activation Pathway,cardiac microtissues [2],-2.236
same,activation Z-score: LXR/RXR Activation,cardiac microtissues [2],3.3
same,activation Z-score: Leukocyte Extravasation Signaling,cardiac microtissues [2],-1.698
same,activation Z-score: MIF Regulation of Innate Immunity,cardiac microtissues [2],-1.633
same,activation Z-score: MYC Mediated Apoptosis Signaling,cardiac microtissues [2],-2.449
same,activation Z-score: Macrophage Alternative Activation Signaling Pathway,cardiac microtissues [2],-0.728
same,activation Z-score: Oncostatin M Signaling,cardiac microtissues [2],-1.342
same,activation Z-score: Osteoarthritis Pathway,cardiac microtissues [2],-2.985
same,activation Z-score: Oxytocin Signaling Pathway,cardiac microtissues [2],-2.4
same,activation Z-score: PAK Signaling,cardiac microtissues [2],-2.449
same,activation Z-score: PPAR Signaling,cardiac microtissues [2],3.742
same,activation Z-score: Production of Nitric Oxide and Reactive Oxygen Species in Macrophages,cardiac microtissues [2],-2.646
same,activation Z-score: Prostanoid Biosynthesis,cardiac microtissues [2],-1
same,activation Z-score: Pulmonary Fibrosis Idiopathic Signaling Pathway,cardiac microtissues [2],-5.947
same,activation Z-score: Pulmonary Healing Signaling Pathway,cardiac microtissues [2],-2.668
same,activation Z-score: RAC Signaling,cardiac microtissues [2],-2.449
same,activation Z-score: RHOGDI Signaling,cardiac microtissues [2],2.309
same,activation Z-score: Regulation Of The Epithelial Mesenchymal Transition By Growth Factors Pathway,cardiac microtissues [2],-3.962
same,activation Z-score: Regulation of Cellular Mechanics by Calpain Protease,cardiac microtissues [2],-2
same,activation Z-score: Regulation of eIF4 and p70S6K Signaling,cardiac microtissues [2],-2
same,activation Z-score: Renin-Angiotensin Signaling,cardiac microtissues [2],-2
same,activation Z-score: Ribonucleotide Reductase Signaling Pathway,cardiac microtissues [2],-2.496
same,activation Z-score: Role of IL-17F in Allergic Inflammatory Airway Diseases,cardiac microtissues [2],-2
same,activation Z-score: Role of JAK family kinases in IL-6-type Cytokine Signaling,cardiac microtissues [2],-2.673
same,activation Z-score: Role of NFAT in Cardiac Hypertrophy,cardiac microtissues [2],-2.496
same,activation Z-score: STAT3 Pathway,cardiac microtissues [2],-2.496
same,activation Z-score: Senescence Pathway,cardiac microtissues [2],-2
same,activation Z-score: Signaling by Rho Family GTPases,cardiac microtissues [2],-3.357
same,activation Z-score: Superpathway of Cholesterol Biosynthesis,cardiac microtissues [2],2
same,activation Z-score: TREM1 Signaling,cardiac microtissues [2],-2.714
same,activation Z-score: Type II Diabetes Mellitus Signaling,cardiac microtissues [2],-2
same,activation Z-score: White Adipose Tissue Browning Pathway,cardiac microtissues [2],-2.111
same,activation Z-score: Wound Healing Signaling Pathway,cardiac microtissues [2],-5
same,Structural cardiotoxin?,[3]; FDA label references heart failure or a decrease in left ventricular ejection fraction,Y
same,Functional cardiotoxin?,[3]; compound annotation,Y
same,activity at 10.8 µM,"cardiac microtissues [4]; gene ATAD3C, Run 1",75.7%
same,activity at 10.8 µM,"cardiac microtissues [4]; gene CDH13, Run 1",46.8%
same,activity at 10.8 µM,"cardiac microtissues [4]; gene CDH13, Run 2",19.7%
same,activity at 10.8 µM,"cardiac microtissues [4]; gene IL6, Run 1",10.1%
same,activity at 10.8 µM,"cardiac microtissues [4]; gene PTX3, Run 1",18.7%
same,activity at 10.8 µM,"cardiac microtissues [4]; gene PTX3, Run 2",4.94%
same,activity at 10.8 µM,"cardiac microtissues [4]; gene SLC7A5, Run 1",52.1%
same,activity at 10.8 µM,"cardiac microtissues [4]; gene SLC7A5, Run 2",26%
same,activity at 10.8 µM,"cardiac microtissues [4]; gene UCHL1, Run 1",42.1%
same,activity at 10.8 µM,"cardiac microtissues [4]; gene UCHL1, Run 2",21.3%
same,"2^-ΔΔCt of Individual reps, Treated 1","cardiac microtissues [4]; gene ATAD3C, Run 1",0.8222
same,"2^-ΔΔCt of Individual reps, Treated 2","cardiac microtissues [4]; gene ATAD3C, Run 1",0.6233
same,"2^-ΔΔCt of Individual reps, Treated 3","cardiac microtissues [4]; gene ATAD3C, Run 1",0.828
same,"Average 2^-ΔΔCt, Treated","cardiac microtissues [4]; gene ATAD3C, Run 1",0.7578
same,"2^-ΔΔCt of Individual reps, Treated 1","cardiac microtissues [4]; gene CDH13, Run 1",0.4709
same,"2^-ΔΔCt of Individual reps, Treated 2","cardiac microtissues [4]; gene CDH13, Run 1",0.4361
same,"2^-ΔΔCt of Individual reps, Treated 3","cardiac microtissues [4]; gene CDH13, Run 1",0.5098
same,"Average 2^-ΔΔCt, Treated","cardiac microtissues [4]; gene CDH13, Run 1",0.4723
same,"2^-ΔΔCt of Individual reps, Treated 1","cardiac microtissues [4]; gene CDH13, Run 2",0.2109
same,"2^-ΔΔCt of Individual reps, Treated 2","cardiac microtissues [4]; gene CDH13, Run 2",0.2308
same,"2^-ΔΔCt of Individual reps, Treated 3","cardiac microtissues [4]; gene CDH13, Run 2",0.1575
same,"Average 2^-ΔΔCt, Treated","cardiac microtissues [4]; gene CDH13, Run 2",0.1997
same,"2^-ΔΔCt of Individual reps, Treated 1","cardiac microtissues [4]; gene IL6, Run 1",0.1388
same,"2^-ΔΔCt of Individual reps, Treated 2","cardiac microtissues [4]; gene IL6, Run 1",0.1078
same,"2^-ΔΔCt of Individual reps, Treated 3","cardiac microtissues [4]; gene IL6, Run 1",0.05876
same,"Average 2^-ΔΔCt, Treated","cardiac microtissues [4]; gene IL6, Run 1",0.1018
same,"2^-ΔΔCt of Individual reps, Treated 1","cardiac microtissues [4]; gene PTX3, Run 1",0.2236
same,"2^-ΔΔCt of Individual reps, Treated 2","cardiac microtissues [4]; gene PTX3, Run 1",0.2024
same,"2^-ΔΔCt of Individual reps, Treated 3","cardiac microtissues [4]; gene PTX3, Run 1",0.143
same,"Average 2^-ΔΔCt, Treated","cardiac microtissues [4]; gene PTX3, Run 1",0.1897
same,"2^-ΔΔCt of Individual reps, Treated 1","cardiac microtissues [4]; gene PTX3, Run 2",0.06731
same,"2^-ΔΔCt of Individual reps, Treated 2","cardiac microtissues [4]; gene PTX3, Run 2",0.04708
same,"2^-ΔΔCt of Individual reps, Treated 3","cardiac microtissues [4]; gene PTX3, Run 2",0.03383
same,"Average 2^-ΔΔCt, Treated","cardiac microtissues [4]; gene PTX3, Run 2",0.04941
same,"2^-ΔΔCt of Individual reps, Treated 1","cardiac microtissues [4]; gene SLC7A5, Run 1",0.5311
same,"2^-ΔΔCt of Individual reps, Treated 2","cardiac microtissues [4]; gene SLC7A5, Run 1",0.5414
same,"2^-ΔΔCt of Individual reps, Treated 3","cardiac microtissues [4]; gene SLC7A5, Run 1",0.5079
same,"Average 2^-ΔΔCt, Treated","cardiac microtissues [4]; gene SLC7A5, Run 1",0.5268
same,"2^-ΔΔCt of Individual reps, Treated 1","cardiac microtissues [4]; gene SLC7A5, Run 2",0.3467
same,"2^-ΔΔCt of Individual reps, Treated 2","cardiac microtissues [4]; gene SLC7A5, Run 2",0.2554
same,"2^-ΔΔCt of Individual reps, Treated 3","cardiac microtissues [4]; gene SLC7A5, Run 2",0.2489
same,"Average 2^-ΔΔCt, Treated","cardiac microtissues [4]; gene SLC7A5, Run 2",0.2837
same,"2^-ΔΔCt of Individual reps, Treated 1","cardiac microtissues [4]; gene UCHL1, Run 1",0.4041
same,"2^-ΔΔCt of Individual reps, Treated 2","cardiac microtissues [4]; gene UCHL1, Run 1",0.4271
same,"2^-ΔΔCt of Individual reps, Treated 3","cardiac microtissues [4]; gene UCHL1, Run 1",0.4398
same,"Average 2^-ΔΔCt, Treated","cardiac microtissues [4]; gene UCHL1, Run 1",0.4237
same,"2^-ΔΔCt of Individual reps, Treated 1","cardiac microtissues [4]; gene UCHL1, Run 2",0.202
same,"2^-ΔΔCt of Individual reps, Treated 2","cardiac microtissues [4]; gene UCHL1, Run 2",0.2889
same,"2^-ΔΔCt of Individual reps, Treated 3","cardiac microtissues [4]; gene UCHL1, Run 2",0.1891
same,"Average 2^-ΔΔCt, Treated","cardiac microtissues [4]; gene UCHL1, Run 2",0.2267
